Source: patent US20220274947A1, “NOVEL HETEROARYL-TRIAZOLE COMPOUNDS AS PESTICIDES” (Bayer Aktiengesellschaft, priority 2019, published 2022)

Tests used:
Type in all cases: in vivo
Ctenocephalides felis = Ctenocephalides felis in-vitro contact test, adult cat flea (CTECFE Cont); details: application rate 5 μg/cm^2 (=500 g/ha), adult cat fleas, after 48 hours, read-out: activity (efficacy: 100% means all fleas are dead or moribund)
In short: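 Acetone solutions coated on glass tube inner walls (900 ppm giving 5 μg/cm^2), then 5-10 adult fleas added and held 48 h at room temperature. Fleas unable to escape a 45-50° C. heating plate within 5 min scored dead or moribund; efficacy = % dead/moribund.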

Diabrotica balteata = Diabrotica balteata spray test; details: 168 h, wheat seeds, larvae, after 7 days, read-out: activity (efficacy: 100% means all seedlings have grown up like in the untreated, uninfected control); for pest or weed control at 32 µg/disc, 100 g/ha: application rate 100 g/ha (=32 μg/well); for pest or weed control at 160 µg/disc, 500 g/ha: application rate 500 g/ha (=160 μg/well)
In short: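 Wheat seedlings, germinated 1 day on agar, were sprayed with compound in acetone/DMF diluted in water containing emulsifier, then infested with 10-20 Diabrotica balteata larvae. After 7 days efficacy in % was scored: 100% means seedlings grew like the untreated, uninfected control; 0% means none grew.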

Rhipicephalus microplus [1] = test: Rhipicephalus (Boophilus) microplus in-vitro contact test, larval cattle tick, strain Parkhurst (BOOPMI Cont); details: application rate 5 μg/cm^2 (=500 g/ha), tick larvae, after 48 hours, read-out: activity (efficacy: 100% means all larvae are dead or moribund)
In short: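 Acetone solutions dried onto glass tube walls (900 ppm giving 5 μg/cm^2); 20-50 pyrethroid-resistant Parkhurst larvae added per tube and held 48 h at 27° C., 85% relative humidity. Efficacy scored by negative geotaxis as % dead or moribund larvae.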

Spodoptera frugiperda = Spodoptera frugiperda spray test; details: in Zea mays, 168 h, read-out: activity (mortality)
In short: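 Maize leaf sections were sprayed with compound formulated in acetone/DMF and diluted in water containing 1000 ppm emulsifier. Dried leaves were infested with fall armyworm larvae, and percent mortality was scored after 7 days.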

Rhipicephalus microplus [2] = test: Rhipicephalus (Boophilus) microplus injection test (BOOPMI Inj); details: 168 h, injection into adult engorged female ticks, egg deposition after 7 days, read-out: activity (efficacy: 100% means all eggs are infertile); for pest or weed control at 0.004 mg: application rate 4 μg/tick; for pest or weed control at 0.02 mg: application rate 20 μg/tick
In short: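 Five engorged adult female R. microplus ticks injected into the abdomen with 1 μL of compound diluted in DMSO, then kept in a climate chamber. Fertile egg deposition checked after 7 days; eggs without visible fertility held until hatching at about 42 days. Efficacy: 100% = all eggs infertile, 0% = all fertile.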

Nezara viridula = Nezara viridula spray test; details: in Hordeum vulgare, 96 h, barley plants, larvae, after 4 days; for mortality at 500 g/ha: application rate 500 g/ha; for mortality at 100 g/ha: application rate 100 g/ha
In short: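 Barley plants infested with N. viridula larvae were sprayed with compound in acetone/DMF diluted with water containing 1000 ppm alkylarylpolyglycol ether emulsifier. Mortality (%) was scored after 4 days; 100% means all bugs killed, 0% none.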

Compound | pest or weed control at 5 µg/cm2 (Ctenocephalides felis) | pest or weed control at 32 µg/disc, 100 g/ha (Diabrotica balteata) | pest or weed control at 160 µg/disc, 500 g/ha (Diabrotica balteata) | pest or weed control at 5 µg/cm2 (Rhipicephalus microplus [1]) | mortality at 100 g/ha (Spodoptera frugiperda) | mortality at 500 g/ha (Spodoptera frugiperda) | pest or weed control at 0.004 mg (Rhipicephalus microplus [2]) | pest or weed control at 0.02 mg (Rhipicephalus microplus [2]) | mortality at 500 g/ha (Nezara viridula) | mortality at 100 g/ha (Nezara viridula)
CCc1nc([C@H](C)NC(=O)c2cc(C(F)(F)F)cc(C(F)(F)F)c2)n(-c2ccc(C#N)cn2)n1 [I-1] | 90% | 100% | 100% | 100% | 100% | 100% | 100% | 100% |  | 
CCc1nc([C@H](C)NC(=O)c2cc(Cl)cc(Cl)c2)n(-c2ccc(C#N)cn2)n1 [I-2] | 100% | 100% | 100% | 100% | 100% | 100% | 100% | 100% | 90% | 
CC(C)c1nc([C@H](C)NC(=O)c2cncc(C(F)(F)F)c2)n(-c2ccc(C#N)cn2)n1 [I-30] | 80% | 100% |  | 100% | 100% |  | 100% | 100% |  | 
C[C@H](NC(=O)c1cc(Br)cc(OC(F)(F)F)c1)c1ncnn1-c1ccc(C#N)cn1 [II-14] | 100% | 100% | 100% | 100% | 100% | 100% | 100% | 100% | 100% | 100%
Cc1nc([C@H](C)NC(=O)c2cc(Br)cc(C(F)(F)F)c2)n(-c2ccc(C#N)cn2)n1 [II-32] | 100% | 100% | 100% | 100% | 100% | 100% | 80% | 100% | 100% | 100%
Cc1nc([C@H](C)NC(=O)c2cc(Br)cc(OC(F)(F)F)c2)n(-c2ccc(C#N)cn2)n1 [II-47] | 100% | 100% |  | 100% | 100% |  | 100% | 100% | 100% | 100%
Cc1nc([C@H](C)NC(=O)c2cc(C#N)cc(C(F)(F)F)c2)n(-c2ccc(C#N)cn2)n1 [II-53] | 100% | 100% |  | 100% | 100% |  | 100% | 100% |  | 90%
Cc1nc([C@H](C)NC(=O)c2cc(Br)cc(C#N)c2)n(-c2ccc(C#N)cn2)n1 [II-54] | 100% | 100% |  | 100% | 100% |  | 100% | 100% |  | 
Cc1nc([C@H](C)NC(=O)c2cc(Cl)cc(C#N)c2)n(-c2ccc(C#N)cn2)n1 [II-61] | 100% | 100% |  | 100% | 100% |  | 100% | 100% |  | 100%
Cc1nc([C@H](C)NC(=O)c2cc(Cl)cc(C(F)F)c2)n(-c2ccc(C#N)cn2)n1 [II-65] | 100% | 80% |  | 100% | 100% |  | 100% | 100% |  | 100%
C[C@H](NC(=O)c1cc(C(F)(F)F)cc(C(F)(F)F)c1)c1ncnn1-c1ccc(C(=O)N(C)CC2CC2)cn1 [II-73] | 100% | 100% | 100% | 100% | 100% | 100% | 100% | 100% | 100% | 100%
C[C@H](NC(=O)c1cc(OC(F)F)cc(OC(F)F)c1)c1ncnn1-c1ccc(C#N)cn1 [II-77] | 100% | 100% |  | 90% | 100% |  | 80% |  |  | 100%
C[C@H](NC(=O)c1cc(Cl)cc(C(F)(F)F)c1)c1ncnn1-c1ccc(N(C)C(=O)C2CC2)cn1 [II-79] | 100% | 100% |  | 100% | 100% |  | 100% |  |  | 100%
C[C@H](NC(=O)c1cc(C(F)(F)F)cc(C(F)(F)F)c1)c1ncnn1-c1ccc(C(N)=O)cn1 [II-81] | 100% | 80% |  | 100% | 100% |  | 100% |  |  | 100%
C[C@H](NC(=O)c1cc(Br)cc(C(F)F)c1)c1ncnn1-c1ccc(C#N)cn1 [II-83] | 100% | 100% |  | 90% | 100% |  | 100% |  |  | 
Cc1nc([C@H](C)NC(=O)c2cc(C(F)(F)F)cc(C(F)(F)F)c2)n(-c2ccc(C(=O)N(C)C3CC3)cn2)n1 [II-96] | 100% | 100% |  | 100% | 100% |  | 100% |  |  | 
CCN(C)C(=O)c1ccc(-n2nc(C)nc2[C@H](C)NC(=O)c2cc(C(F)(F)F)cc(C(F)(F)F)c2)nc1 [II-97] | 100% | 100% |  | 100% | 100% |  | 100% |  |  | 100%
Cc1nc([C@H](C)NC(=O)c2cc(C(F)(F)F)cc(C(F)(F)F)c2)n(-c2ccc(C(=O)N(C)CC#N)cn2)n1 [II-99] | 100% | 100% |  | 100% |  |  | 100% |  |  | 100%
